According to PubChem BioAssay AID2305 (GlaxoSmithKline (GSK), 2010):

The compounds below were run on P. falciparum 3D7 growth, pLDH absorbance (assay: blood-stage malaria parasite growth potency – strain 3D7, dose response (AID 2305)).

SMILES | IC50 [nM]
O=C(/C=C/c1ccc(Cl)c(Cl)c1)NCCCCCN1CCCC(C(=O)Nc2cccc(Cl)c2)C1 (stereo not drawn) | 900
Cc1nc(N)nc(N)c1CCCOc1cccc(Cl)c1 | 480
CN(C)CCc1c[nH]c2ccc(C(=O)Nc3ccc(-c4ccncc4)cc3)cc12 | 570
CCOC(=O)c1ccc(-c2c(C(F)(F)F)noc2-c2cc(CC)c(OC)cc2O)o1 | 210
CCCn1cnc2cc(C(=O)Nc3ccc(-c4cccc(CN(C)C)c4)cc3)ccc2c1=O | 930
CN(c1ccc(NC(=O)c2cccc(F)c2)cc1)C1CCCN(Cc2cccc(O)c2)C1 (stereo not drawn) | 1300
CC(=O)Nc1nc(C(=O)Nc2ccc(-c3ccc(-c4nc5ccccc5[nH]4)cc3)cc2)cs1 | 150
CCC1(C)CC(CCNCc2ccccc2O)(c2ccccc2OC)CCO1 (stereo not drawn) | 720
Cc1c(C)n(Cc2ccccc2)c2ncnc(OC3CCN(CC(=O)NCC4CC4)CC3)c12 | 1120
O=C(c1cc2cccc([N+](=O)[O-])c2[nH]1)N1CCC(CCN2CCC(c3c[nH]c4ccccc34)CC2)CC1 | 940
CC1CC1C(=O)NC1CCN(CC2(c3ccccc3)CCCCC2)CC1 (stereo not drawn) | 640
Cc1cccc2[nH]c(-c3ccc(-c4ccc(C(=O)NCCN5CCCC5)cc4)s3)nc12 | 900
Cc1cc(-c2nc3ccc(C(=O)NCc4ccccc4)cc3n2C2CCN(C(=O)c3ccc(-c4ccccc4)cc3)CC2)ccn1 | 900
CS(=O)(=O)CCNCc1cccc(-c2cc3nccc(Nc4ccc(Oc5ccccc5)cc4)c3cc2Cl)c1 | 620
CCN(CC)CCOc1cc2c(cc1Br)-c1cc(Br)c(OCCN(CC)CC)cc1C2=NO | 1090
CSc1ccc2nccc(Nc3ccc(Oc4ccccc4)cc3)c2c1 | 870
COc1cc(CCNc2nc(NCc3ccccc3-c3ccccc3)nc(N3CCC(N)CC3)n2)ccc1O | 820
COc1ccc(C(C(=O)NC2CCN(C[C@H](O)c3ccnc4ccc(OC)cc34)CC2)N2CCc3ccccc3C2)cc1 (stereo partly drawn) | 700
CS(=O)(=O)Cc1ccc(Nc2nccc(-c3c(-c4cccc(C(=O)Nc5c(F)cccc5F)c4)nn4ccccc34)n2)cc1 | 530
Cc1ccc(Nc2nc(C)cc(N3CCN(c4ccccc4)CC3)n2)cc1 | 1530
Cc1ccc2nc(C)cc(NN=Cc3ccc(Cl)cc3)c2c1 | 990
COc1ccc2nccc(N(C)CC3(O)CCN(CCc4ccc5c(c4)NC(=O)CS5)CC3)c2n1 | 140
CC=CC(=O)N1CCN(c2nccc(-c3ccc(C(C)(C)C)cc3)n2)CC1 | 1080
Cn1c(/C=C/C(=O)NC2CCC(CCN3CCc4ccc(C#N)cc4CC3)CC2)cc2ccccc21 (stereo not drawn) | 730

SMILES | IC50 [nM]
CCCC(CNCc1cccc(OC(F)(F)C(F)F)c1)CNc1cc(=O)c2ccccc2[nH]1 (stereo not drawn) | 590
CCOc1ccc(C(Cc2ccccc2)NC(=O)c2cccnc2)cc1OCC (stereo not drawn) | 770
Cc1cc(-c2ccc(CNCc3ccsc3)cc2)ccc1S(=O)(=O)NCCN1CCCC1 | 720
CCOc1cc(-c2nnc3[nH]c(=O)n(C)c(=O)c3n2)ccc1OC(C)C | 400
CCC(C)c1ccc(Nc2nc(C)cc(N(CC)CCCN3CCCCC3)n2)cc1 (stereo not drawn) | 330
O=C(NC1CCCCC1)N(Cc1cccc(-c2ccc(CNCc3ccc4c(c3)OCO4)cc2)c1)C1CCN(Cc2ccccc2)CC1 | 790
Fc1cccc(COc2ccc(Nc3ncnc4sc(C#C[C@H]5CC[C@H](CNCC(F)(F)F)N5)cc34)cc2Cl)c1 | 1420
CCOc1cc(C(=O)Nc2ccc3nc(N(CC)CC)cc(C)c3c2)cc(OCC)c1OCC | 700
CC(C)Nc1cc(C(=O)N[C@@H](Cc2ccccc2)[C@H](O)CNC2CCOCC2)c(F)c(N2CCCCS2(=O)=O)c1 | 180
CCCCCCN1CCN(Cc2cccc(NC(=O)c3cccc(OCC)c3)c2)CC1 | 1110
COc1ccc2nccc(NN=Cc3ccccc3[N+](=O)[O-])c2c1 | 70
COc1cccc(Nc2nc(C)cc(NC3CCN(Cc4ccccc4)CC3)n2)c1 | 690
Cc1nc(N)nc(N)c1OCc1cccc2ccccc12 | 70
Cc1cccc2[nH]c(-c3ccc(-c4cccc(CNCc5cccc(N)c5)c4)s3)nc12 | 520
CCCCC(=O)Nc1cc(=O)[nH]c2nc(-c3ccc(Cl)cc3)nn12 | 710
NC(N)=NC(=O)Nc1cc(Br)c(Cl)c(Br)c1 | 770
CC(C)Oc1cc2c(cc1NS(=O)(=O)c1ccc(-c3ccc(Cl)s3)cc1F)CCN(C)CC2 | 710
Clc1nc2ccccn2c1C=Cc1ccc2ccccc2n1 | 270
NC(=O)COc1cccc2c1CCN(CCN1CCC(NC(=O)c3ccc(-c4ccc(Cl)cc4)cc3)CC1)C2 | 840
Cc1cccc(C(=O)NCCCN2CCC(NC(=O)/C=C/c3ccc(Cl)c(Cl)c3)CC2)c1 | 1700
Cc1ccc2[nH]c(C)c(Br)c(=O)c2c1 | 810
C=CCOC(=O)N1CCC(CNCc2cccc(-c3ccc(-c4nc5c(C)cccc5[nH]4)s3)c2)C1 (stereo not drawn) | 250
c1cc(CN2CCC(CCN3CCCCC3)CC2)cc(-c2csc(-c3nc4ccccc4[nH]3)c2)c1 | 140
COc1ccc(NC(=O)/C=C/c2ccccc2Cl)cc1OCCN1CCC(N2CCCCC2)CC1 | 900
